Source: patent US20210289794A1, “COMPOSITIONS AND RELATED METHODS FOR AGRICULTURE” (Flagship Pioneering Innovations V, Inc., priority 2018, published 2021)
Peptide text beside a SMILES is read from it.

System: Candidatus Pantoea carbekii
Assay: Quantification of P. carbekii titers by RT-qPCR in H. halys nymphs hatched from treated eggs
Format: in vivo, Halyomorpha halys
Settings: for levels of P. carbekii (symbiont levels per host; ratio of P. carbekii dnaK to H. halys 60s expression): Example 5: egg mass treatment, late 2nd instars, vs water control, FIG. 5; for levels of P. carbekii (ratio of P. carbekii dnaK to H. halys 60s expression): third instars collected, vs negative control
Protocol: Total RNA was extracted from nymphs using total RNA isolation and purification kits (both from Thermo Fisher Scientific), and the extracted RNA was eluted in 100 μL water. […] Each of the PCR mixtures was 10 μL in volume. RT-qPCR was performed using a PCR amplification ramp of 1.6° C./s and the following conditions: 1) 48° C. for 30 min; 2) 95° C. for 10 minutes; 3) 95° C. for 15 seconds; 4) 55° C. for 30 seconds; 5) repeat steps 3-4 40×, 6); 95° C. for 15 seconds; 7) 55° C. for 1 minute; 8) ramp change to 0.15° C./s; 9) 95° C. for 1 second. RT-qPCR data was analyzed using analytic software (Thermo Fisher Scientific).
Working concentrations of the PHA synthesis inhibitors (vanillin, levulinic acid, acrylic acid (AA), and 2-bromooctanoic acid (2BA)) were made up to 100 μg/ml in water. The solutions of PHA inhibitors were spiked with a non-ionic wetting solution to a final concentration of 0.025% to increase the wettability and spreading of the agents on the eggs. As a negative control, no agents were added to the 0.025% non-ionic wetting solution, and as a positive control, 100 μg/ml of the antibiotic rifamycin S was used. Egg masses on leaf disks were removed from the colony in a single day during peak egg production. Each egg mass was then placed in a container with a paper towel at the bottom, and a tube of water plugged with cotton was provided as a water source for the hatchlings. 100 μl of the agent was pipetted onto the eggs to wet them completely. This allowed the agent to interact directly with the bacteria before the bacteria was able to colonize the host. Once the 1st instar hatchlings molted to the 2nd instar stage, food was provided in the form of 500 mg diet pellets (see “Halyomorpha halys lab colony rearing and maintenance” above). Late 2nd instars were collected and frozen to extract DNA to assay for the symbiont levels, as described in Example 4. […]

[1] = 100 μg/ml in water with 0.025% non-ionic wetting solution, 100 μl
[2] = Example 6: egg mass treatment, 100 μg/ml in water with 0.025% Silwet L-77, 100 μl, FIG. 6

Structure (SMILES): C=CC(=O)O [acrylic acid]
- levels of P. carbekii (symbiont levels per host; ratio of P. carbekii dnaK to H. halys 60s expression) [1]: reduction in the symbiont levels per host

Structure (SMILES): COc1cc(C=O)ccc1O [vanillin]
- levels of P. carbekii (symbiont levels per host; ratio of P. carbekii dnaK to H. halys 60s expression) [1]: reduction in the symbiont levels per host

Structure (SMILES): CC[C@H](C)[C@H](N)C1=N[C@H](C(=O)N[C@@H](CC(C)C)C(=O)N[C@H](CCC(=O)O)C(=O)N[C@H](C(=O)N[C@H]2CCCCNC(=O)[C@H](CC(N)=O)NC(=O)[C@@H](CC(=O)O)NC(=O)[C@H](Cc3cnc[nH]3)NC(=O)[C@@H](Cc3ccccc3)NC(=O)[C@H]([C@@H](C)CC)NC(=O)[C@@H](CCCN)NC2=O)[C@@H](C)CC)CS1 [bacitracin] (HELM PEPTIDE1{[CC[C@H](C)[C@H](N)C1=N[C@H](C(=O)[*:2])CS1].L.[dE].I.K.[NCCC[C@@H](N[*:1])C(=O)[*:2]].I.[dF].H.[dD].N}$PEPTIDE1,PEPTIDE1,5:R3-11:R2$$$V2.0)
- levels of P. carbekii (ratio of P. carbekii dnaK to H. halys 60s expression) [2]: significantly lower

Structure (SMILES): CC(=O)CCC(=O)O [levulinic acid]
- levels of P. carbekii (symbiont levels per host; ratio of P. carbekii dnaK to H. halys 60s expression) [1]: reduction in the symbiont levels per host

Structure (SMILES): CCCCCCC(Br)C(=O)O (centres unmarked) [2-bromooctanoic acid]
- levels of P. carbekii (symbiont levels per host; ratio of P. carbekii dnaK to H. halys 60s expression) [1]: reduction in the symbiont levels per host

Structure (SMILES): CO[C@H]1/C=C/O[C@@]2(C)Oc3c(C)c(O)c4c(c3C2=O)C(=O)C=C(NC(=O)/C(C)=C\C=C\[C@H](C)[C@H](O)[C@@H](C)[C@@H](O)[C@@H](C)[C@H](OC(C)=O)[C@@H]1C)C4=O [Rifamycin S]
- levels of P. carbekii (symbiont levels per host; ratio of P. carbekii dnaK to H. halys 60s expression) [1]: significantly lower
- levels of P. carbekii (ratio of P. carbekii dnaK to H. halys 60s expression) [2]: significantly lower
- levels of P. carbekii (ratio of P. carbekii dnaK to H. halys 60s expression) (Example 7: egg mass treatment, 100 μg/ml in water with 0.025% non-ionic wetting solution, 100 μl, FIG. 7): significantly lower
